In ChEMBL document CHEMBL1139957, “Synthesis of furanosyl alpha-C-glycosides derived from 4-chloro-4-deoxy-alpha-D-galactose and their cytotoxic activities” (2007):

What was measured:
Assay type in all cases: functional
A549 [1] = assay: Cytotoxicity against human A549 cells at 50 umol/mL after 48 hrs by MTT assay
A549 [2] = assay: Cytotoxicity against human A549 cells at 100 umol/mL after 48 hrs by MTT assay
A549 [3] = assay: Cytotoxicity against human A549 cells at 200 umol/mL after 48 hrs by MTT assay

Row | Structure (SMILES) | Inhibition (A549 [1]) [%] | Inhibition (A549 [2]) [%] | Inhibition (A549 [3]) [%]
1 | CC(=O)c1cc(C2OC[C@@H](O)[C@@H]2O)oc1C (stereo partly drawn) | 23.14 | 27.4 | 33.09
2 | CCOC(=O)c1cc([C@H]2OC[C@@H](O)[C@@H]2Cl)oc1C | 15.15 | 18.51 | 25.72
3 | CCOC(=O)c1cc([C@H]2OC[C@@H](N=[N+]=[N-])[C@@H]2Cl)oc1C | 18.28 | 19.79 | 36.89
4 | CC(=O)c1cc([C@H]2OC[C@@H](O)[C@@H]2Cl)oc1C | 24.36 | 31.92 | 39.36
5 | CCOC(=O)c1cc([C@H]2OC[C@@H](OS(C)(=O)=O)[C@@H]2Cl)oc1C | 15.3 | 18.55 | 27.87
6 | CC(=O)c1cc([C@H]2OC[C@@H](OS(C)(=O)=O)[C@@H]2Cl)oc1C | 26.42 | 35.65 | 46.8
7 | CCOC(=O)c1cc([C@H]2OC[C@@H](N)[C@@H]2Cl)oc1C | 10.09 | 16.29 | 24.82
8 | CCOC(=O)c1cc([C@H]2OCC(=O)[C@@H]2Cl)oc1C | 28.81 | 31.36 | 45.68
9 | CC(=O)c1cc([C@H]2OC[C@@H](N)[C@@H]2Cl)oc1C | 13.04 | 24.86 | 34.57
10 | CC(=O)c1cc([C@H]2OC[C@@H](N=[N+]=[N-])[C@@H]2Cl)oc1C | 32.73 | 48.6 | 56.7
11 | COC(=O)c1cc([C@H]2OCC(=O)[C@@H]2Cl)oc1C | 21.49 | 28.55 | 37.67
